System: adult male rabbits of the animal strain HsdHHL Watanables
Assay: Erection (length of the protruding penis) in hypercholesterolemic rabbits after cGMP PDE inhibitor, with or without antilipemic pretreatment
Assay type: in vivo, rabbit
Details: cerivastatin sodium 1 mg/kg s.c. for 7 days
Description: In a placebo-controlled study, twelve adult male rabbits of the animal strain HsdHHL Watanables having a body weight of 3-5 kg, which, owing to breeding, suffer from hypercholesterolemia and arteriosclerosis, were treated with a selective cGMP PDE inhibitor (3 mg/kg, intravenously).
The animals had free access to water and, for 2 hours per day, to feed. The animals were kept in a 10/14 hour day/night rhythm (light on from 8 am onwards), and the ambient temperature was 22 to 24° C.
The selective cGMP PDE inhibitor used was 2-[2-ethoxy-5-(4-ethyl-piperazine-1-sulfonyl)-phenyl]-5-methyl-7-propyl-3H-imidazo[5,1-f][1,2,4]triazin-4-one hydrochloride trihydrate (Ex. 336 of WO-A-99/24433).
For intravenous injection, the PDE inhibitor was dissolved in physiological saline (0.9% by volume).
For seven days prior to the treatment with the PDE inhibitor, i.e. for 7 successive days, an antilipemic, i.e. cerivastatin sodium (i.e. the monosodium salt of cerivastatin) was administered subcutaneously to six of the twelve rabbits (1 mg/kg of body weight, cerivastatin sodium dissolved in physiological saline). […]
The erection was evaluated by measuring the length of the protruding penis using a vernier caliper. […] To this end, the animals were in each case removed from the cage, held by neck hair and hind legs, turned onto their back and measured. […]

COCc1c(C(C)C)nc(C(C)C)c(/C=C/[C@@H](O)C[C@@H](O)CC(=O)O)c1-c1ccc(F)cc1 [cerivastatin sodium]
erection 1 day after the cerivastatin sodium pretreatment had ended compared with 3 days after (FIG. 2, upper vs middle curve) (then PDE inhibitor 3 mg/kg i.v., 1 day vs 3 days after end of pretreatment): still more pronounced
erection after administration of the PDE inhibitor, compared with rabbits not pretreated with the antilipemic (FIG. 2) (then PDE inhibitor (Ex. 336 of WO-A-99/24433) 3 mg/kg i.v. 1 day and 3 days after pretreatment ended, measured 5-120 min, control saline pretreatment): considerably more pronounced erection

Reference: patent US20060189624A1, “Novel combination for treating sexual dysfunction” (Bayer Aktiengesellschaft, priority 1999, published 2006)
